Results: ChEMBL document CHEMBL5584255, “Synthesis and antibacterial medicinal evaluation of carbothioamido hydrazonyl thiazolylquinolone with multitargeting antimicrobial potential to combat increasingly global resistance” (Eur J Med Chem, 2024)
Values after ≈ are worked out from the molar mass of the structure shown. Active and inactive are the calls of the source. No cut-off for these calls is given here.

Tests used:
[1] = tested on: Aspergillus fumigatus; experiment: Antifungal activity against Aspergillus fumigatus; format: functional
[2] = tested on: Escherichia coli; experiment: Antibacterial activity against drug-resistant Escherichia coli by microbroth dilution method; format: functional
[3] = tested on: Klebsiella pneumoniae; experiment: Antibacterial activity against Klebsiella pneumoniae by microbroth dilution method; format: functional
[4] = Hemolytic activity in human RBC assessed as hemolysis ratio at 0.0189 mM measured after 1 hr relative to control; format: toxicity, cell-based, Erythrocyte; details: red blood cells (erythrocytes)
[5] = tested on: Candida parapsilosis; experiment: Antifungal activity against Candida parapsilosis ATCC 22019; format: functional; details: Lodderomyces parapsilosis
[6] = Hemolytic activity in human RBC assessed as hemolysis ratio at 0.0024 mM measured after 1 hr relative to control; format: toxicity, cell-based, Erythrocyte; details: red blood cells (erythrocytes)
[7] = tested on: Staphylococcus aureus; experiment: Antibacterial activity against drug-resistant Staphylococcus aureus by microbroth dilution method; format: functional
[8] = Cytotoxicity against mouse L929 cells assessed as cell viability up to 0.3019 mM measured after 72 hrs by MTT assay relative to control; format: toxicity, cell-based; details: read-out: Activity
[9] = tested on: Staphylococcus aureus; experiment: Induction of resistance development in Staphylococcus aureus measured after 16 passages; format: functional
[10] = Toxicity in mouse assessed as change in kidney morphology at 5 to 10 mg/kg administered for 10 days by hematoxylin and eosin staining based assay; format: organism-based; details: in vivo, 240 h, dose 5-10 mg/kg, time 10 day
[11] = tested on: DNA; experiment: Binding affinity to drug-resistant Staphylococcus aureus DNA by UV-visible absorption spectra analysis; format: nucleic-acid assay
[12] = Hemolytic activity in human RBC assessed as hemolysis ratio at 0.0047 mM measured after 1 hr relative to control; format: toxicity, cell-based, Erythrocyte; details: red blood cells (erythrocytes)
[13] = tested on: Pseudomonas aeruginosa; experiment: Antibacterial activity against Pseudomonas aeruginosa by microbroth dilution method; format: functional
[14] = tested on: Staphylococcus aureus; experiment: Antibacterial activity against Staphylococcus aureus ATCC 29213 by microbroth dilution method; format: functional
[15] = tested on: Staphylococcus aureus; experiment: Antibacterial activity against methicillin-resistant Staphylococcus aureus N315 by microbroth dilution method; format: functional
[16] = molecular target: Topoisomerase IV (Staphylococcus aureus, UniProt P0C1S7+P0C1U9); experiment: Inhibition of drug-resistant Staphylococcus aureus topoisomerase 4; format: protein-complex assay
Topoisomerase IV, sequence (P0C1U9 whole entry): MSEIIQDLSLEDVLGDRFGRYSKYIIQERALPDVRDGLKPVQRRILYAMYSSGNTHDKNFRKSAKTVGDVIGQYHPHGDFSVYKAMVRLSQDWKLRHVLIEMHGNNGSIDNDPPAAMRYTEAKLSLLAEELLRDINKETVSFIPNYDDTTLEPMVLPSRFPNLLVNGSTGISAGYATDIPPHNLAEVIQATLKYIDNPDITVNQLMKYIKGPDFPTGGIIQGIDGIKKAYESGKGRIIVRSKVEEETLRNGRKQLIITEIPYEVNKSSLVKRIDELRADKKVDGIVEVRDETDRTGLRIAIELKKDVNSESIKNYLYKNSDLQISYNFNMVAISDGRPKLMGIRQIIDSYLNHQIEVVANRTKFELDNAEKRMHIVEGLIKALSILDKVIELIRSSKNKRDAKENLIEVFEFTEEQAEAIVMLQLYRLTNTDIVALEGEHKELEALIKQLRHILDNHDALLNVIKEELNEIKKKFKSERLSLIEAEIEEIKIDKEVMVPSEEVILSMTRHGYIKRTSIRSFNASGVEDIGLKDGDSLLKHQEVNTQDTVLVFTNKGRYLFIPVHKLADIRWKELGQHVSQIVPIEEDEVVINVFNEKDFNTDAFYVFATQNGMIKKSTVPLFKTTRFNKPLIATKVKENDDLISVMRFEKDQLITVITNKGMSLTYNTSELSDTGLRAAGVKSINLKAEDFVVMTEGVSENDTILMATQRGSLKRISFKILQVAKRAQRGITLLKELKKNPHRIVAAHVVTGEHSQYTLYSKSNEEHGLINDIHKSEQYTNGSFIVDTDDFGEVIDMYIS
Topoisomerase IV, sequence (P0C1S7 whole entry): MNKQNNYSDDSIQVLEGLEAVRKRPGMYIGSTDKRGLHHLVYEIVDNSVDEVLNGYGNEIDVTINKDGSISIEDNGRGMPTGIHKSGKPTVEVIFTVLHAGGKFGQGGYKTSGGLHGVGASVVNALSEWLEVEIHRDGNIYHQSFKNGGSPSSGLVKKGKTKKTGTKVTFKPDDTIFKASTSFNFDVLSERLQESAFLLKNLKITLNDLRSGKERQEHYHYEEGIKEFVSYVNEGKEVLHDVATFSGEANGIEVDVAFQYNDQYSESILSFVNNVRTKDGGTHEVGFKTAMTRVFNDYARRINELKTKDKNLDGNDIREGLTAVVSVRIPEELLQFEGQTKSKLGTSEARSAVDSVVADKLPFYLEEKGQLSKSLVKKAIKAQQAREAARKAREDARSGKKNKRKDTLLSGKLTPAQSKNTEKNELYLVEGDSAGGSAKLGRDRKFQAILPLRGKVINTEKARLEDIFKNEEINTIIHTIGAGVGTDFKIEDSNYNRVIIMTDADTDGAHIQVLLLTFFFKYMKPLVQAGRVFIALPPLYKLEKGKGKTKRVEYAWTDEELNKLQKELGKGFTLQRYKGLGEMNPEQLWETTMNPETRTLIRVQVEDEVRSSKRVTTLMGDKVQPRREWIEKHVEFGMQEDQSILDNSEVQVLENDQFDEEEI

[17] = tested on: Staphylococcus aureus; experiment: Potency index, ratio of norfloxacin MIC to test compound MIC for drug-resistant Staphylococcus aureus by microbroth dilution method; format: functional
[18] = tested on: Pseudomonas aeruginosa; experiment: Antibacterial activity against Pseudomonas aeruginosa ATCC 27853 by microbroth dilution method; format: functional
[19] = Toxicity in mouse assessed as change in spleen morphology at 5 to 10 mg/kg administered for 10 days by hematoxylin and eosin staining based assay; format: organism-based; details: in vivo, 240 h, dose 5-10 mg/kg, time 10 day
[20] = Toxicity in mouse assessed as change in body weight at 5 to 10 mg/kg administered for 10 days; format: organism-based; details: in vivo, 240 h, dose 5-10 mg/kg, time 10 day
[21] = tested on: Candida albicans; experiment: Antifungal activity against drug-resistant Candida albicans; format: functional
[22] = tested on: Staphylococcus aureus; experiment: Antibacterial activity against Staphylococcus aureus ATCC 25923 by microbroth dilution method; format: functional
[23] = tested on: DNA; experiment: Displacement of neutral red from drug-resistant Staphylococcus aureus DNA assessed as DNA intercalation by measuring blue shift up to 1.5 x 10^-5 mol/L by UV-visible absorption spectra analysis (reference value: 460 nm); format: nucleic-acid assay; details: dose <= 1.5 10^-5mol/L
[24] = tested on: Acinetobacter baumannii; experiment: Antibacterial activity against Acinetobacter baumannii by microbroth dilution method; format: functional
[25] = tested on: Candida albicans; experiment: Antifungal activity against Candida albicans ATCC 90023; format: functional
[26] = tested on: Enterococcus faecalis; experiment: Antibacterial activity against drug-resistant Enterococcus faecalis by microbroth dilution method; format: functional
[27] = Cytotoxicity against human A549 cells assessed as cell viability up to 0.3019 mM measured after 72 hrs by MTT assay relative to control; format: toxicity, cell-based; details: read-out: Activity
[28] = tested on: Candida tropicalis; experiment: Antifungal activity against drug-resistant Candida tropicalis; format: functional
[29] = tested on: Escherichia coli; experiment: Antibacterial activity against Escherichia coli ATCC 25922 by microbroth dilution method; format: functional
[30] = tested on: DNA; experiment: Binding affinity to drug-resistant Staphylococcus aureus DNA assessed as hypochromic effect at 7.86 x 10^-5 mol/L by UV-visible absorption spectra analysis; format: nucleic-acid assay; details: dose 7.86 10^-5mol/L
[31] = tested on: Cell membrane; experiment: Induction of membrane permeabilization in drug-resistant Staphylococcus aureus at 0.0283 mM measured within 60 mins by propidium iodide staining based fluorescence assay
[32] = tested on: DNA; experiment: Displacement of neutral red from drug-resistant Staphylococcus aureus DNA assessed as DNA intercalation by UV-visible absorption spectra analysis; format: nucleic-acid assay; details: dose <= 1.5 10^-5mol/L
[33] = Hemolytic activity in human RBC assessed as hemolysis ratio at 0.0094 mM measured after 1 hr relative to control; format: toxicity, cell-based, Erythrocyte; details: red blood cells (erythrocytes)
[34] = Toxicity in mouse assessed as change in liver morphology at 5 to 10 mg/kg administered for 10 days by hematoxylin and eosin staining based assay; format: organism-based; details: in vivo, 240 h, dose 5-10 mg/kg, time 10 day

| Structure (SMILES) | MIC [1] | MIC [2] | MIC [3] | MIC [5] | MIC [7] | MIC [13] | MIC [14] | MIC [15] | MIC [18] | MIC [21] | MIC [22] | MIC [24] | MIC [25] | MIC [26] | MIC [28] | MIC [29] | other results |
| --- | --- | --- | --- | --- | --- | --- | --- | --- | --- | --- | --- | --- | --- | --- | --- | --- | --- |
| C/C(Cn1cc(-c2csc(N)n2)c(=O)c2cc(F)c(Cl)cc21)=N\NC(N)=S | 151 µM (≈ 64.2 µg/mL) | 151 µM (≈ 64.2 µg/mL) | 302 µM (≈ 128 µg/mL) | 5 µM (≈ 2.12 µg/mL) | 5 µM (≈ 2.12 µg/mL) | 76 µM (≈ 32.3 µg/mL) | 5 µM (≈ 2.12 µg/mL) | 38 µM (≈ 16.1 µg/mL) | 19 µM (≈ 8.07 µg/mL) | 19 µM (≈ 8.07 µg/mL) | 38 µM (≈ 16.1 µg/mL) | 151 µM (≈ 64.2 µg/mL) | 19 µM (≈ 8.07 µg/mL) | 302 µM (≈ 128 µg/mL) | 151 µM (≈ 64.2 µg/mL) | 19 µM (≈ 8.07 µg/mL) | hemolysis at 1 h, 18.9 µM [4]: 2.21%; hemolysis at 1 h, 2.4 µM [6]: 0.472%; viability at 72 h, up to 301.9 µM [8]: > 75%; Activity [9]: Active; Activity [10]: Non-Toxic; K [11]: 6.32 10^4L/mol; hemolysis at 1 h, 4.7 µM [12]: 1.07%; IC50 [16]: 10.9 µM; Ratio [17]: 5; Activity [19]: Non-Toxic; Activity [20]: Toxic; Activity [23]: 420 nm; viability at 72 h, up to 301.9 µM [27]: > 75%; Activity [30]: Active; Activity [31]: Active; Activity [32]: Dose-Dependent Effect; hemolysis at 1 h, 9.4 µM [33]: 1.25%; Activity [34]: Non-Toxic |
| Cc1nc(-c2c[nH]c3c(F)cccc3c2=O)cs1 | 492 µM (≈ 128 µg/mL) | 1970 µM (≈ 513 µg/mL) | 985 µM (≈ 256 µg/mL) | 492 µM (≈ 128 µg/mL) | 1970 µM (≈ 513 µg/mL) | 985 µM (≈ 256 µg/mL) | 1970 µM (≈ 513 µg/mL) | 1970 µM (≈ 513 µg/mL) | 492 µM (≈ 128 µg/mL) | 985 µM (≈ 256 µg/mL) | 985 µM (≈ 256 µg/mL) | 492 µM (≈ 128 µg/mL) | 985 µM (≈ 256 µg/mL) | 985 µM (≈ 256 µg/mL) | 492 µM (≈ 128 µg/mL) | 985 µM (≈ 256 µg/mL) |  |
| Nc1nc(-c2c[nH]c3cc(Cl)c(F)cc3c2=O)cs1 | 217 µM (≈ 64.2 µg/mL) | 434 µM (≈ 128 µg/mL) | 868 µM (≈ 257 µg/mL) | 1740 µM (≈ 513 µg/mL) | 868 µM (≈ 257 µg/mL) | 868 µM (≈ 257 µg/mL) | 434 µM (≈ 128 µg/mL) | 1740 µM (≈ 513 µg/mL) | 868 µM (≈ 257 µg/mL) | 217 µM (≈ 64.2 µg/mL) | 217 µM (≈ 64.2 µg/mL) | 868 µM (≈ 257 µg/mL) | 109 µM (≈ 32.2 µg/mL) | 868 µM (≈ 257 µg/mL) | 217 µM (≈ 64.2 µg/mL) | 217 µM (≈ 64.2 µg/mL) |  |
| Nc1nc(-c2c[nH]c3ccc(F)cc3c2=O)cs1 | 245 µM (≈ 64 µg/mL) | 490 µM (≈ 128 µg/mL) | 490 µM (≈ 128 µg/mL) | 245 µM (≈ 64 µg/mL) | 490 µM (≈ 128 µg/mL) | 981 µM (≈ 256 µg/mL) | 490 µM (≈ 128 µg/mL) | 490 µM (≈ 128 µg/mL) | 245 µM (≈ 64 µg/mL) | 245 µM (≈ 64 µg/mL) | 490 µM (≈ 128 µg/mL) | 490 µM (≈ 128 µg/mL) | 61 µM (≈ 15.9 µg/mL) | 490 µM (≈ 128 µg/mL) | 490 µM (≈ 128 µg/mL) | 490 µM (≈ 128 µg/mL) |  |
| C/C(Cn1cc(-c2csc(C)n2)c(=O)c2cccc(F)c21)=N\NC(N)=S | 658 µM (≈ 256 µg/mL) | 329 µM (≈ 128 µg/mL) | 1320 µM (≈ 513 µg/mL) | 658 µM (≈ 256 µg/mL) | 1320 µM (≈ 513 µg/mL) | 329 µM (≈ 128 µg/mL) | 329 µM (≈ 128 µg/mL) | 1320 µM (≈ 513 µg/mL) | 329 µM (≈ 128 µg/mL) | 1320 µM (≈ 513 µg/mL) | 658 µM (≈ 256 µg/mL) | 329 µM (≈ 128 µg/mL) | 1320 µM (≈ 513 µg/mL) | 658 µM (≈ 256 µg/mL) | 329 µM (≈ 128 µg/mL) | 329 µM (≈ 128 µg/mL) |  |
| CC(=O)Cn1cc(-c2csc(N)n2)c(=O)c2cc(F)c(Cl)cc21 | 365 µM (≈ 128 µg/mL) | 729 µM (≈ 256 µg/mL) | 729 µM (≈ 256 µg/mL) | 182 µM (≈ 64 µg/mL) | 182 µM (≈ 64 µg/mL) | 91 µM (≈ 32 µg/mL) | 365 µM (≈ 128 µg/mL) | 365 µM (≈ 128 µg/mL) | 91 µM (≈ 32 µg/mL) | 91 µM (≈ 32 µg/mL) | 182 µM (≈ 64 µg/mL) | 365 µM (≈ 128 µg/mL) | 91 µM (≈ 32 µg/mL) | 365 µM (≈ 128 µg/mL) | 365 µM (≈ 128 µg/mL) | 182 µM (≈ 64 µg/mL) |  |
| C/C(Cn1cc(-c2csc(N)n2)c(=O)c2cc(F)ccc21)=N\NC(N)=S | 656 µM (≈ 256 µg/mL) | 328 µM (≈ 128 µg/mL) | 656 µM (≈ 256 µg/mL) | 656 µM (≈ 256 µg/mL) | 82 µM (≈ 32 µg/mL) | 656 µM (≈ 256 µg/mL) | 82 µM (≈ 32 µg/mL) | 164 µM (≈ 64 µg/mL) | 656 µM (≈ 256 µg/mL) | 328 µM (≈ 128 µg/mL) | 82 µM (≈ 32 µg/mL) | 328 µM (≈ 128 µg/mL) | 328 µM (≈ 128 µg/mL) | 328 µM (≈ 128 µg/mL) | 328 µM (≈ 128 µg/mL) | 164 µM (≈ 64 µg/mL) |  |
| Nc1nc(Cn2cc(-c3csc(N)n3)c(=O)c3cc(F)c(Cl)cc32)cs1 | 315 µM (≈ 128 µg/mL) | 157 µM (≈ 64 µg/mL) | 315 µM (≈ 128 µg/mL) | 79 µM (≈ 32.2 µg/mL) | 39 µM (≈ 15.9 µg/mL) | 157 µM (≈ 64 µg/mL) | 20 µM (≈ 8.16 µg/mL) | 315 µM (≈ 128 µg/mL) | 39 µM (≈ 15.9 µg/mL) | 157 µM (≈ 64 µg/mL) | 39 µM (≈ 15.9 µg/mL) | 157 µM (≈ 64 µg/mL) | 39 µM (≈ 15.9 µg/mL) | 315 µM (≈ 128 µg/mL) | 315 µM (≈ 128 µg/mL) | 20 µM (≈ 8.16 µg/mL) |  |
